# Assay results published in patent US9175038B2, “Peptide mimetic ligands of polo-like kinase 1 polo box domain and methods of use” (The United States of America, as represented by the …, priority 2009, dated 2015).
# “Also recorded” adds a separate entry of the source. Read-outs that look alike come from different tables or passages of the source. Starred links: 1 amine or outer side, 2 acyl side, 3 side chain; linkers in the order of their positions; H or OH if unused. Non-standard residues stand in square brackets, D forms with d. Residues, ends and D or L forms follow the SMILES beside them. No end group written: not given here. X4 = C[C@@H](OP(=O)(O)OCCCCc1ccccc1)[C@H](N[*:1])C(=O)[*:2]; X3 = O=C([C@H](Cc1cncn1CCCCc1ccccc1)N[*:1])[*:2]; X2 = O=C(CN(CCCCCCCc1ccccc1)[*:1])[*:2]; pT = C[C@@H](OP(=O)(O)O)[C@H](N)C(=O)O; NPentylGly = CCCCCNCC(=O)O
# Legend:
# [1] = biological target: HA-EGFP-Plk1 (Homo sapiens, UniProt P53350); assay: ELISA-based PBD-binding inhibition assay (HA-EGFP-Plk1 binding to immobilized biotinylated p-T78 peptide)
# Sequence of HA-EGFP-Plk1 (P53350 whole entry): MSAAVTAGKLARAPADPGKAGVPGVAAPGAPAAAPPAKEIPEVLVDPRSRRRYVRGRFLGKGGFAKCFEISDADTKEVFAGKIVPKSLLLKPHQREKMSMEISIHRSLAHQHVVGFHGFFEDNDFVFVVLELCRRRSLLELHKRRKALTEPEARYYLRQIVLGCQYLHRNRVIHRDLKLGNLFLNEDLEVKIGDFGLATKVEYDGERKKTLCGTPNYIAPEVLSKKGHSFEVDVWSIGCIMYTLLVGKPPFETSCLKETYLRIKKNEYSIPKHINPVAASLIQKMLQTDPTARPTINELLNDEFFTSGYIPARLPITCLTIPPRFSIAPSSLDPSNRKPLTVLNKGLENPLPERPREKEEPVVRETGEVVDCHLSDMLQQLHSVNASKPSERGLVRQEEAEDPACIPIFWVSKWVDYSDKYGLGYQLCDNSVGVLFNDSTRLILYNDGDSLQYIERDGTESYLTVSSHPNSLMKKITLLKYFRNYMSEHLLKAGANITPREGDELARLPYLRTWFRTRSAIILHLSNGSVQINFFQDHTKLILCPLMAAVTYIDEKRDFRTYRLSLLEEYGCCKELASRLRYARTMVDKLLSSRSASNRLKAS
# [2] = tested on: Plk1 localization to the centrosomes in HeLa cells; assay: Acute Cdc2 inhibition in nocodazole-arrested HeLa cells, Plk1 localization; format: cell-based, human; settings: 200 nM, 10 min
# Description: HeLa cells were cultured as subconfluent monolayers under the conditions recommended by American Type Culture Collection (Manassas, Va.). […] No mitotic exit was observed during the period of 10 min BMI-1026 treatment. For microinjection experiments with the Pmab-containing mimetic peptides, cells were arrested for 16 h with 2.5 mM thymidine (Sigma) and released into fresh medium. Two hours after release from the S phase block, the indicated peptides (2.5 mM stock in PBS) were microinjected into the cells using Eppendorf® Transjector 5246 (Eppendorf®, Westbury, N.Y.) at the 150 hPa pressure level and the 0.5 second injection time. All the cells in a single grid were injected and then further incubated to monitor cell cycle progression. For microinjection experiments with the F2Pmab-containing mimetic peptides, cells were arrested with 2.5 mM thymidine for 16 h twice with a 9 h release interval, and then released into fresh medium. Seven hours after release from the G1/S phase block, the indicated peptides (4 mM stock in PBS) were microinjected similarly as above. Where indicated, peptides containing the final concentration of 30 ng/μl of pEGFP-C1 vector (Clontech®, Mountain View, Calif.) were used to visualize the injected cells.
# [3] = biological target: T1, Plk1 PBD (Homo sapiens, UniProt P53350); assay: Isothermal titration calorimetry with recombinant Plk1 PBD; format: binding; settings: Table 1
# T1 construct: Two forms of Plk1 PBD (residues 326-603 and residues 367-603) were expressed as fusion constructs; His6-DsRed (N, cleaved yes); made in house; host or cells: E. coli BL21(DE3)pLysS or Rosetta 2
# T1 sequence (P53350 326-603): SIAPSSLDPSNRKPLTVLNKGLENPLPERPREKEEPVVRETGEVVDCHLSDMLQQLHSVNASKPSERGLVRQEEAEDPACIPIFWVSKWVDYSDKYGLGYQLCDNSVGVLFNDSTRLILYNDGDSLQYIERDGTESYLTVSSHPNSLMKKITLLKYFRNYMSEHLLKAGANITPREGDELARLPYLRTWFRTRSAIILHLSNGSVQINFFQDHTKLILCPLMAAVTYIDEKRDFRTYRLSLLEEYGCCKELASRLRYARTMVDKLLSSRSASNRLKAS
# Description: Isothermal titration calorimetry analyses. The calorimetric titrations were carried out using purified recombinant PBDs (for Plk1 and Plk2) from bacterial cells and the indicated peptides. Further details are presented in Online Supplemental Materials.
# Isothermal titration calorimetry analyses. The calorimetric titrations were performed on a VP-ITC titration calorimeter (Microcal, Inc., Northampton, Mass.). In a typical experiment, 5 μl aliquots of a phosphorylated peptide were injected from a 250 μl syringe into a rapidly mixing (300 rpm) solution of Plk1 PBD (cell volume=1.3472 ml). Control experiments involved injecting identical amounts of the peptide solution into buffer without Plk1 PBD. […] Titrations were carried out at 25° C. in 20 mM Tris-Cl (pH 7.5), 100 mM NaCl, 3 mM DTT. The isotherms, corrected for dilution/buffer effects, were fit using the Origin ITC Analysis software according to manufacturer's protocols. A nonlinear least-square method was used to fit the titration data and to calculate the errors. Consistent with the structural data, a 1:1 stoichiometry was assumed and the data were fit to a one-site binding model. From the binding curve, values for enthalpy and binding affinity were extracted. Thermodynamic parameters were calculated using ΔG=−RTlnKa, ΔG=ΔH−TΔS.
# A TEV protease cleavage site was engineered between the tag and PBD. […] Cells were grown to an optical density of 0.4 at 30° C. with vigorous shaking. The cultures were cooled to 20° C., induced by addition of IPTG to a final concentration of 0.4 mM, and incubated for 12 h. The cells were harvested and the pellets were frozen prior to lysis. All subsequent purification was done at 4° C. The frozen pellets were thawed in buffer A (20 mM Tris-Cl, pH 8.0, 500 mM NaCl, 3 mM DTT) and lysed by addition of 4% v/v BugBuster 10× protein extraction reagent (Novagen) and 0.1 mg/ml of DNase I (Sigma). The lysate was centrifuged at 40000×g for 30 minutes to pellet the cell debris and filtered through a 0.2 μm filter. The lysate was loaded onto HisTrap HP columns (Amersham Biosciences, Piscataway, N.J.) with 100 mM imidazole, washed with 100 mM imidazole in buffer A, and eluted with 500 mM imidazole in buffer A. The peaks containing the fusion protein were digested with TEV protease (1:100 molar ratio) overnight by dialysis against buffer A. The digestion was reloaded onto HisTrap HP column without imidazole, washed with buffer A, and eluted with 80 mM imidazole in buffer A. A HiLoad 16/60 Superdex 75 gel filtration column (Amersham) equilibrated with buffer A was used as the final step in purification. Full length PBD was dialyzed against a low salt buffer (20 mM Tris-Cl, pH 7.5, 100 mM NaCl, 3 mM DTT), and used in calorimetry experiments. The truncated forms of PBD were used for crystallography. […] The resulting protein was digested with TEV protease to cleave the tag, flowed through Ni column, and then finally subjected to gel filtration.
# [4] = biological target: T2, Plk1 PBD-p-Cdc25C interaction (Homo sapiens, UniProt P53350); assay: GST-PBD p-Cdc25C pull-down competition in mitotic HeLa lysates; format: binding; settings: peptide added to mitotic HeLa lysates pre-incubated with GST-PBD
# T2 construct: made in house; host or cells: GST-PBD from bacteria; p-Cdc25C endogenous in mitotic HeLa lysate
# T2 sequence (P53350 326-603 limits assumed): as the sequence (P53350 326-603) above
# [5] = biological target: T3, Plk1 (Homo sapiens, UniProt P53350); assay: Pull-down of Plk1 from mitotic HeLa lysates with bead-immobilized peptides
# Target sequence in this assay (P53350 whole entry): as the sequence (P53350 whole entry) above
# [6] = biological target: T4, Plk2 PBD (Homo sapiens, UniProt Q9NYY3); assay: Isothermal titration calorimetry with recombinant Plk2 PBD; format: binding
# T4 construct: The PBD of human Plk2 (residues 373 to 685) was cloned as a MBP fusion; MBP (cleaved yes); made in house; host or cells: bacterial cells
# T4 sequence (Q9NYY3 373-685): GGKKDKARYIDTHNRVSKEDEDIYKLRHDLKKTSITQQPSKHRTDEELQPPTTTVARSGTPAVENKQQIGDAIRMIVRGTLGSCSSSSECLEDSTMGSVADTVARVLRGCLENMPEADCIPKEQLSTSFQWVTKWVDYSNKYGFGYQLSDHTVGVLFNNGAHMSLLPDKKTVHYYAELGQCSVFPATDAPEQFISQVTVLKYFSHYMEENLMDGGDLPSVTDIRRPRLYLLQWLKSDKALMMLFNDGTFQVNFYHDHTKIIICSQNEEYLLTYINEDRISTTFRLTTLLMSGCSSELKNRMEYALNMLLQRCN
# [7] = biological target: T3, Plk1; assay: Kd (µM)
# Target sequence in this assay (P53350 2-603 limits assumed): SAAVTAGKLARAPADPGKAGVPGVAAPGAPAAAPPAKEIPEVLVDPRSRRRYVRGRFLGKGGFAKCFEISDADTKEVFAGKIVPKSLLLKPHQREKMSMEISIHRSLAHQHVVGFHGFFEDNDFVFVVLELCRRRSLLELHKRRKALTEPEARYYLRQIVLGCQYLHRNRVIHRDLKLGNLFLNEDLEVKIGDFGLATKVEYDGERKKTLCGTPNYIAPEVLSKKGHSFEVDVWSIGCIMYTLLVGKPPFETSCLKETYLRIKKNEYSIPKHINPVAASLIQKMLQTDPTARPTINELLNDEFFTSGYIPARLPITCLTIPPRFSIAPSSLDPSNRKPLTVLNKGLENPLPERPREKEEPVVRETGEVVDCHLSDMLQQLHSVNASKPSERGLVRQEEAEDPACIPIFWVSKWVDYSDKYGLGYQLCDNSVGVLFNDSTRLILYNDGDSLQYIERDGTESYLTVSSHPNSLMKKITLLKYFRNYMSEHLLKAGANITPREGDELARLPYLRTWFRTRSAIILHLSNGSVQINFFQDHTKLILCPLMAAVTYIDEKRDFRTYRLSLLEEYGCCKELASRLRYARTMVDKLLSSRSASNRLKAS
# [8] = biological target: Flag-Plk1(K82M) (Homo sapiens, UniProt P53350, K82M); assay: Plk specificity pull-down from mixed HeLa lysates expressing Flag-Plk1, Flag-Plk2, Flag-Plk3 (Plk1 signal); settings: for Plk1 binding in specificity pull-down (in words): mixed Flag-Plk1/2/3 HeLa lysates
# Sequence of Flag-Plk1(K82M) (P53350 whole entry K82M): as the sequence (P53350 whole entry) above, with K82M counted along it
# [9] = tested on: HeLa cells; settings: two days after electroporation
# [10] = competitor peptide at various concentrations
# [11] = bead-immobilized peptide, mitotic HeLa lysates, phosphatase inhibitors
compound,measurement,setting,value
CC(=O)N1CCC[C@H]1C(=O)N[C@@H](CC(C)C)C(=O)N[C@@H](Cc1cncn1CCCCc1ccccc1)C(=O)N[C@@H](CO)C(=O)N[C@H](C(N)=O)[C@@H](C)OP(=O)(O)O [3h] (Ac-PL[X3]S[pT]-NH2),PBD-binding inhibition / binding potency in ELISA (in words),[1],gave the highest binding affinity for minor product 3
CC(=O)N1CCC[C@H]1C(=O)N[C@@H](CC(C)C)C(=O)N[C@@H](Cc1cnc[nH]1)C(=O)N[C@@H](CO)C(=O)N[C@H](C(N)=O)[C@@H](C)OP(=O)(O)OCCCCc1ccccc1 [4h (Example 15)] (Ac-PLHS[X4]-NH2),PBD-binding inhibition / binding potency in ELISA (in words),[1]; [10],"much less active than 3h, also less active than the WT"
CC(=O)N(CCCCCCCc1ccccc1)CC(=O)N[C@@H](CC(C)C)C(=O)N[C@@H](Cc1c[nH]cn1)C(=O)N[C@@H](CO)C(=O)N[C@H](C(N)=O)[C@@H](C)OP(=O)(O)O [4r] (Ac-[X2]LHS[pT]-NH2),PBD-binding inhibition / binding potency in ELISA (in words),[1],gave the highest potency according to the ELISA assay results
CCCCCN(CC(=O)N[C@@H](CC(C)C)C(=O)N[C@@H](Cc1c[nH]cn1)C(=O)N[C@@H](CO)C(=O)N[C@H](C(N)=O)[C@@H](C)OP(=O)(O)O)C(C)=O [11A] (Ac-[NPentylGly]LHS[pT]-NH2),PBD-binding inhibition / binding potency in ELISA (in words),[1],slightly higher binding affinity
Nc1nccc(-c2ccc(O)c(-c3ccnc(N)n3)c2)n1 [BMI-1026],centrosomal Plk1 signals (in words),[2],greatly diminished the level of centrosomal Plk1 signals
CC(=O)N1C[C@H]2C[C@H]1C(=O)N[C@@H](CC(C)C)C(=O)N[C@@H](Cc1cnc[nH]1)C(=O)N[C@@H](CO)C(=O)N[C@H](C(N)=O)[C@@H](C)OP(=O)(O)OCCC/C=C\O2 [FA507],PBD-binding inhibition / binding potency in ELISA (in words),[1]; [10],bound better than FA509
CC(=O)N[C@@H](Cc1c[nH]cn1)C(=O)N[C@@H](CO)C(=O)N[C@H](C(=O)N[C@@H](C)C(N)=O)[C@@H](C)OP(=O)(O)O [HSpTA] (Ac-HS[pT]A-NH2),binding affinity to Plk1 PBD by ITC (in words),[3],much lower affinities
same,disruption of pre-formed PBD-p-Cdc25C complex (in words),[4],disrupted the complex weakly
same,Plk1 binding / precipitation by immobilized peptide (in words),[5]; [11],bound to Plk1 better than SpTAI
"CC(=O)N[C@@H](CC(C)C)C(=O)N[C@@H](Cc1c[nH]cn1)C(=O)N[C@@H](CO)C(=O)N[C@H](C(=O)N[C@@H](C)C(N)=O)[C@@H](C)OP(=O)(O)O [LHSpTA, Ac-LHSpTA-NH2]",interaction with Plk2 PBD by ITC (in words),[6]; limit of detection 1 kcal/mol,virtually no interactions with Plk2
same,disruption of pre-formed PBD-p-Cdc25C complex (in words),[4],disrupted the pre-formed PBD-p-Cdc25C complex nearly as efficiently as PLHSpT
same,Plk1 binding / precipitation by immobilized peptide (in words),[5],bound to Plk1 almost as efficiently as PLHSpT
CC[C@H](C)[C@H](NC(=O)[C@H](C)NC(=O)[C@@H](NC(=O)[C@H](CO)NC(=O)[C@H](Cc1c[nH]cn1)NC(=O)[C@H](CC(C)C)NC(C)=O)[C@@H](C)OP(=O)(O)O)C(N)=O [LHSpTAI] (Ac-LHS[pT]AI-NH2),binding affinity to Plk1 PBD by ITC (in words),[3],slightly higher affinities than the 5-mer peptides
same,Kd,[7],247 ± 50 nM
same,Plk1 binding / precipitation by immobilized peptide (in words),[5]; [11],efficiently precipitated Plk1; also recorded: binding affinity of the latter is equivalent to that of the former
same,Plk1 binding in specificity pull-down (in words),[8],preferentially precipitates Plk1
CC(=O)N[C@@H](CC(C)C)C(=O)N[C@@H](Cc1c[nH]cn1)C(=O)N[C@@H](CO)C(=O)N[C@H](C(N)=O)[C@@H](C)OP(=O)(O)O [LHSpT] (Ac-LHS[pT]-NH2),weaker binding than PLHSpT,[3]; ITC,~50 fold
same,binding affinity to Plk1 PBD by ITC (in words),[3],much lower affinities
same,disruption of pre-formed PBD-p-Cdc25C complex (in words),[4],much less effective than PLHSpT; also recorded: disrupted the complex weakly
same,diminished binding affinity to Plk1 compared with PLHSpT,"[5]; bead-immobilized peptide, mitotic HeLa lysates (FIG. 1A)",~7 fold
same,Plk1 binding / precipitation by immobilized peptide (in words),[5]; [11],bound to Plk1 better than SpTAI
Biotin-(CH)6-PLHS-F2Pmab-A-NH2 [biotin-F2Pmab],Plk1 delocalization and apoptotic cell death (in words),[9],leads to Plk1 delocalization and apoptotic cell death
HSpT: p-T78 peptide lacking both the Pro and Leu residues (His-Ser-[pT]),Plk1 binding / precipitation by immobilized peptide (in words),[5]; [11],did not exhibit any significant level of binding
"HSpTAI: 5-mer p-T78 peptide lacking both Pro and Leu, bearing two additional C-terminal residues ({Cys-(CH2)6}-HS[pT]AI)",Plk1 binding / precipitation by immobilized peptide (in words),[5]; [11],bound to Plk1 only weakly
MLHSpT: Pro-4 to Met-4 mutant of PLHSpT (MLHS[pT]),Plk1 binding in specificity pull-down (in words),[8],greatly diminished level of Plk1 PBD binding
PLHSpTA: 6-mer p-T78 peptide (PLHS[pT]A; also: in pull-downs N-terminal Cys-(CH2)6 linker cross-linked to beads),binding affinity to Plk1 PBD by ITC (in words),[3],slightly higher affinities than the 5-mer peptides
PLHSpTAIYAD: 10-mer p-T78 peptide (PLHS[pT]AIYAD),Plk1 binding / precipitation by immobilized peptide (in words),[5]; [11],precipitated Plk1 from mitotic HeLa cells as the major binding protein
PLQSpT: His-2 to Gln mutant of PLHSpT (PLQS[pT]),initial heats of interaction,"[6]; ITC, peptide titrated into Plk2 PBD, no saturable binding",~-1.1 kcal/mol
PPHSpT: derivative of PLHSpT with Pro at the −3 position (PPHS[pT]; also: N-acetyl in the crystal (Ac-PPHSpT)),diminished binding to Plk1 compared with PLHSpT,[8]; mixed Flag-Plk1/2/3 HeLa lysates (FIG. 3D),20 fold
